Reference: article PMC12383145, “Fluorescent Peptides Internalize HeLa Cells and Kill Multidrug-Resistant Clinical Bacterial Isolates” (Antibiotics, 2025)
In brackets after ≈: the same amount, converted by molar mass. Several values for one entry are separate records, joined by “and”; a condition that tells them apart may be missing. Equal entries are not always repeated. Each block holds one compound with its values, some of them ahead of it. Positions of bridges follow the written chain, without caps; N, C: chain ends. Non-standard residues stand in square brackets, D forms with d. Residues, ends and D or L forms follow the SMILES beside them. Chains are numbered I, II in the order given. *: point of attachment. 5FAM = O=C1OC2(c3ccc(O)cc3Oc3cc(O)ccc32)c2ccc(C(=O)*)cc21; hPhe = N[C@@H](CCc1ccccc1)C(=O)O; Ahx = NCCCCCC(=O)O

How the values were obtained:
Format in all cases: cell-based
erythrocytes = experiment: Hemolysis assay; settings: 2 h
Protocol: (§1) Whole blood was collected into EDTA tubes and centrifuged at 2500 rpm for 10 min. The plasma and buffy coat were removed, and the erythrocytes were washed three times with 0.9% saline to yield a 4% cell suspension. In 96-well plates, 100 µL of peptide dilutions (6.25–200 µg/mL) were prepared in triplicate, and 100 µL of the erythrocyte suspension was added (final hematocrit 2%). Plates were incubated at 37 °C for 2 h, and then centrifuged again at 2500 rpm for 10 min. A 100 µL aliquot of the supernatant was transferred to a fresh plate, and absorbance was measured at 450 nm. Saline and 1× Triton X-100 served as the negative and positive controls, respectively. Hemolysis (%) was calculated as follows: %hemolysis=treatment absorbance−saline absorbance/1×triton absorbance−saline absorbance

Hemolysis assay = settings: Percentage of hemolysis
Protocol: as §1

[1] = test system: S. aureus clinical isolate 11719; settings: clinical isolate 11719, 24 h
[2] = test system: E. coli clinical isolate 129797 (resistant); settings: clinical isolate 129797 (resistant, 24 h)
Protocol: (§2) E. coli isolates 1004 (susceptible), 129797 (resistant), and 301755 (MDR) were selected for evaluation. Isolate 1004 was sensitive to all antibiotics tested. […] These findings identify it as a multidrug-resistant (MDR) strain and an extended-spectrum beta-lactamase (ESBL)-producing bacterium. For S. aureus, isolates 109095, 117719, and 124653 were evaluated. All three were resistant to penicillin, indicating beta-lactamase production mediated by the blaZ gene. Studies have shown that up to 90% of S. aureus isolates worldwide are penicillin-resistant, which implies that this antibiotic is ineffective in infections caused by this pathogen. […] Isolate 124653 was resistant to penicillin, tetracycline, and erythromycin, with the latter belonging to the group of macrolides, antibiotics that inhibit protein synthesis through interaction with the 50S […] subunit. For E. faecalis three isolates were selected: strains 213 (sensitive to all the antibiotics tested), strain 82 (resistant to streptomycin), and strain 179 (resistant to gentamicin). These clinical isolates were selected to assess the antimicrobial activity of the peptide RWQWRWQWR and its analogues conjugated to fluorescent molecules in strains against strains with susceptibility profiles.
(§3) The analysis of synthesized peptides in ATCC reference strains and susceptible, resistant, and multidrug-resistant (MDR) clinical isolates was performed. The clinical isolates were obtained from the National Cancer Institute collection and were previously identified and antibiogrammed using the VITEK system. Additionally, the strains were characterized by MALDI-TOF. The strains were re-primed onto trypticase soy agar and subsequently preserved in Brain–Heart Infusion (BHI) broth containing 20% glycerol. For the MIC and MBC assays, the strains were reactivated and cultured in BHI until they reached their exponential growth phase.
(§4) The minimum inhibitory concentration (MIC) of the peptides was determined by the broth microdilution technique, according to the Clinical and Laboratory Standards Institute (CLSI) guidelines, as previously described. Briefly, bacterial strains were incubated in BHI broth at 37 °C until they reached the exponential growth phase, and inocula were adjusted to 5 × 10^6 CFU/mL using calibration curves. Serial dilutions of the peptides to be evaluated in 96-well plates were made in 90 µL of Mueller Hinton broth at concentrations ranging from 200 to 6.25 µg/mL, and 10 µL of the inoculum adjusted to 5 × 10^6 CFU/mL was added. Finally, the plates were incubated at 37 °C for 24 h, and the absorbance at 620 nm was read. As a negative control, CMH, distilled water, and 10 µL of inoculum were used; for the positive control, vancomycin was used for Gram-positive strains and ciprofloxacin for Gram-negative strains at the MICs dictated by the CLSI; as a technical control, CMH with peptone water was used, and for the growth control, CMH was used with 10 µL of inoculum.
(§5) To determine the minimum bactericidal concentration (MBC), the 96-well plates where the MIC was determined were used as a starting point. From these, an aliquot of the controls and those wells where no apparent bacterial growth was observed were spotted onto trypticase soy agar plates. The plates were incubated at 37 °C for 24 h, and the reading was taken, identifying the lowest concentration of the peptide where there was no bacterial growth as the MBC.

[3] = test system: E. faecalis clinical isolate 213; settings: clinical isolate 213, 24 h
Protocol: as §2, §3, §4, §5

[4] = test system: E. faecalis clinical isolate 179; settings: clinical isolate 179, 24 h
Protocol: as §2, §3, §4, §5

[5] = test system: S. aureus clinical isolate 109095; settings: clinical isolate 109095, 24 h
Protocol: as §2, §3, §4, §5

[6] = test system: S. aureus clinical isolate 124653; settings: clinical isolate 124653, 24 h
Protocol: as §2, §3, §4, §5

[7] = test system: E. coli clinical isolate 1004 (susceptible); settings: clinical isolate 1004 (susceptible, 24 h)
Protocol: as §2, §3, §4, §5

[8] = test system: E. faecalis clinical isolate 82; settings: clinical isolate 82, 24 h
Protocol: as §2, §3, §4, §5

[9] = test system: E. coli clinical isolate 301755 (MDR); settings: clinical isolate 301755 (MDR, 24 h)
Protocol: as §2, §3, §4, §5

P. aeruginosa ATCC 27853 = settings: ATCC 27853, 24 h
Protocol: as §4, §5

[10] = test system: K. pneumoniae ATCC 700603; settings: ATCC 700603, 24 h
Protocol: as §4, §5

E. coli ATCC 25922 = settings: ATCC 25922, 24 h
Protocol: as §4, §5

S. aureus ATCC 25923 = settings: ATCC 25923, 24 h
Protocol: as §4, §5

E. faecalis ATCC 29212 = settings: ATCC 29212, 24 h
Protocol: as §4, §5

[11] = MTT cytotoxicity assay in HeLa cells; settings: human
Protocol: MTT assays were conducted in HeLa cells to evaluate the effect of fluorescent probe incorporation on the in vitro cytotoxic activity of the parent non-conjugated peptides. The cytotoxic effect of peptides 1, Abz-1 RhB-1, 2, and RhB-2 in HeLa cells was peptide concentration-dependent, with the highest anticancer activity observed at 200 µg/mL. Incorporation of 2-Abz and RhB at the N-terminal end reduced cytotoxic activity, while the binding of 2-Abz at the C-terminal end or FAM at the N-terminal end drastically diminished anticancer activity (Table 4).

- Minimal inhibitory concentration (MIC) [1]: > 108 µM
- Minimal inhibitory concentration (MIC) [2]: > 108 µM
- Minimal inhibitory concentration (MIC) [3]: 108 µM (≈ 199 µg/mL)
- Minimal inhibitory concentration (MIC) [4]: > 108 µM
- Minimal inhibitory concentration (MIC) [5]: > 108 µM
- Minimal inhibitory concentration (MIC) [6]: > 108 µM
- Minimal inhibitory concentration (MIC) [7]: 108 µM (≈ 199 µg/mL)
- Minimal inhibitory concentration (MIC) [8]: 54 µM (≈ 99.6 µg/mL)
- Minimal inhibitory concentration (MIC) [9]: 108 µM (≈ 199 µg/mL)
- Minimal inhibitory concentration (MIC) (P. aeruginosa ATCC 27853): > 108 µM
- Minimal inhibitory concentration (MIC) [10]: > 108 µM
- Minimal inhibitory concentration (MIC) (E. coli ATCC 25922): 108 µM (≈ 199 µg/mL)
- Minimal inhibitory concentration (MIC) (S. aureus ATCC 25923): 108 µM (≈ 199 µg/mL)
- Minimal inhibitory concentration (MIC) (E. faecalis ATCC 29212): 54 µM (≈ 99.6 µg/mL)
SMILES: N=C(N)NCCC[C@H](NC(=O)[C@H](Cc1c[nH]c2ccccc12)NC(=O)[C@H](CCC(N)=O)NC(=O)[C@H](Cc1c[nH]c2ccccc12)NC(=O)[C@H](CCCNC(=N)N)NC(=O)[C@H](Cc1c[nH]c2ccccc12)NC(=O)[C@H](CCC(N)=O)NC(=O)[C@H](Cc1c[nH]c2ccccc12)NC(=O)[C@H](CCCNC(=N)N)NC(=O)c1ccc2c(c1)C(=O)OC21c2ccc(O)cc2Oc2cc(O)ccc21)C(N)=O [FAM-1, FAM-RWQWRWQWR] (5FAM-RWQWRWQWR-NH2)
- Therapeutic index (erythrocytes): 0.25
- hemolysis at 2 h (Hemolysis assay): 17%
- Minimal bactericidal concentration (MBC) [1]: > 108 µM
- Minimal bactericidal concentration (MBC) [2]: > 108 µM
- Minimal bactericidal concentration (MBC) [3]: > 108 µM
- Minimal bactericidal concentration (MBC) [4]: > 108 µM
- Minimal bactericidal concentration (MBC) [5]: > 108 µM
- Minimal bactericidal concentration (MBC) [6]: > 108 µM
- Minimal bactericidal concentration (MBC) [7]: > 108 µM
- Minimal bactericidal concentration (MBC) [8]: > 108 µM
- Minimal bactericidal concentration (MBC) [9]: > 108 µM
- Minimal bactericidal concentration (MBC) (P. aeruginosa ATCC 27853): > 108 µM
- Minimal bactericidal concentration (MBC) [10]: > 108 µM
- Minimal bactericidal concentration (MBC) (E. coli ATCC 25922): > 108 µM
- Minimal bactericidal concentration (MBC) (S. aureus ATCC 25923): > 108 µM
- Minimal bactericidal concentration (MBC) (E. faecalis ATCC 29212): > 108 µM
- IC50 [11]: > 200 µg/mL and > 108 µM

SMILES: CC(C)C[C@H](NC(=O)[C@H](CCCCN)NC(=O)[C@H](CCCCN)NC(=O)[C@H](CCc1ccccc1)NC(=O)[C@H](CCCNC(=N)N)NC(=O)[C@H](Cc1c[nH]c2ccccc12)NC(=O)[C@H](CCC(N)=O)NC(=O)[C@H](Cc1c[nH]c2ccccc12)NC(=O)[C@H](CCCNC(=N)N)NC(=O)[C@@H](N)CCCNC(=N)N)C(=O)NCC(=O)NCCCC[C@H](NC(=O)CNC(=O)[C@H](CC(C)C)NC(=O)[C@H](CCCCN)NC(=O)[C@H](CCCCN)NC(=O)[C@H](CCc1ccccc1)NC(=O)[C@H](CCCNC(=N)N)NC(=O)[C@H](Cc1c[nH]c2ccccc12)NC(=O)[C@H](CCC(N)=O)NC(=O)[C@H](Cc1c[nH]c2ccccc12)NC(=O)[C@H](CCCNC(=N)N)NC(=O)[C@@H](N)CCCNC(=N)N)C(=O)NCCCCCC(N)=O [peptide 2, (RRWQWR-hF-KKLG)2K-Ahx] (I: H-RRWQWR[hPhe]KKLGK[Ahx]-NH2 / II: H-RRWQWR[hPhe]KKLG; amide I:12-II:C; N-terminus assumed)
- IC50 [11]: 109 µg/mL and 32 µM
